Five compounds from patent publication US20070203177A1, “Forms of dolasetron mesylate and processes for their preparation” (priority 2006, published 2007) can be followed below.

The data set can be described thus: Heat transformations of Dolasetron mesylate forms (solid-state form after heating). The data set is classed as physicochemical.

Consider `CS(=O)(=O)O.O=C(OC1C[C@@H]2CC3C[C@H](C1)N2CC3=O)c1c[nH]c2ccccc12` (stereo partly drawn) [Form IV, Dolasetron mesylate], for which, under “heated at 160 °C, 60 min., listed as IV”, the “HEAT TRANSFORMATION RESULT” value is listed as “VII + IV”.

Regarding `CS(=O)(=O)O.O=C(OC1C[C@@H]2CC3C[C@H](C1)N2CC3=O)c1c[nH]c2ccccc12` (stereo partly drawn) [Form V, Dolasetron mesylate], under “heated at 160 °C, 60 min., listed as V”, the “HEAT TRANSFORMATION RESULT” value is reported as “XII”.

As for `O=C(OC1CC2CC3CC(C1)N2CC3=O)c1c[nH]c2ccccc12` (stereo not drawn) [Form II, (2α,6α,8α,9αβ)-octahydro-3-oxo-2,6-methano-2H-quinolizin-8-yl-1H-indole-3-carboxylate monomethanesulfonate monohydrate, reference compound], the “HEAT TRANSFORMATION RESULT (second TEMP./TIME)” value (after 160 °C, 30 min, then 160, 30 min) was “VII > III”.

For `CS(=O)(=O)O.O=C(OC1C[C@@H]2CC3C[C@H](C1)N2CC3=O)c1c[nH]c2ccccc12` (stereo partly drawn) [Form I, Dolasetron Mesylate], the “HEAT TRANSFORMATION RESULT” value (heated at 190 °C, 30 min.) was “Amorphous > III”.

On to `CS(=O)(=O)O.O=C(OC1C[C@@H]2CC3C[C@H](C1)N2CC3=O)c1c[nH]c2ccccc12` (stereo partly drawn) [Form VIII, Dolasetron mesylate], for which the “HEAT TRANSFORMATION RESULT” value by setting is: (heated at 160 °C, 30 min) “XII”; (heated at 160 °C, 60 min., listed as VIII) “XII”.
